In patent US6083496A, “Polyamine transport inhibitors” (priority 1996, dated 2000):
Read-outs that look alike come from different tables or passages of the source. Values belong to the compound of their own block, whether it stands above or below them.

Tests used:
[1] = system: ZR-75-1 cells; assay: Effect of inhibitors on cell proliferation (11 days, DNA content); assay type: cell-based, human
Protocol: Effect of Inhibitors on Cell Proliferation--For growth studies, ZR-75-1 cells were cultured in MEZR medium or in phenol red-free RPMI 1640 supplemented with 2 mM L-glutamine, 1 mM sodium pyruvate, 15 mM Hepes, antibiotics, 1 nM 17β-estradiol, 0.5 μg of bovine insulin per ml and 5% (v/v) charcoal-treated fetal bovine serum (SD medium), as indicated in the text. […] M. L. 1989. in The Physiology of Polyamines (Bachrach, U., and Helmer, Y. M. eds) Vol. I, pp. 203-229, CRC Press, Boca Raton). […] Endocrinology 126: 3223-3231). Medium was changed every other day in these experiments because of the slow reaction of the compound with an unknown component present in the IMEM and RPMI 1640 medium formulation.

[2] = system: polyamine transporter; assay: Putrescine uptake ([3H]putrescine) in ZR-75-1 cells; assay type: cell-based, human; details: DESC up to 100 μM, MESC up to 200 μM
Protocol: (§1) J. Biol. […] Endocrinology 126: 3223-3231). […] Cell cultures were then washed twice with 1 ml PBS containing 5.7 mM sym-norspermidine. Cells were then lysed with 200-μl aliquot of 1 N NaOH and incubated for 30 minutes at 60° C. After neutralization with 200 μl of 1 N HCl, radioactivity was determined from a 250-μl of the cell lysate by scintillation counting. Uptake activity was expressed per amount of total cellular protein as determined by the method of Bradford (Bradford, M. M. 1976. Anal. Biochem. 72: 248-254). Non-specific binding of radioactive substrate was similarly determined in parallel for both cell lines after a 15 second-incubation with 400 μl of ice-cold uptake solution. […] Km, Ki and Vmax values were then estimated by Line-weaver-Burke analysis. For competitive inhibitors, Ki values were also estimated by measuring uptake activity in the presence of logarithmically increasing concentrations of antagonist, and using the Cheng-Prusoff equation (Cheng. Y. -C. and Prusoff, W. H. 1973. Biochem. Pharmacol. 22: 3099-3108) by iterative curve fitting for a sigmoidal curve. For mixed competitive/noncompetitive inhibition, two methods were used to calculate kinetic constants. […] C. 1976. Enzymes, 3rd Ed., Academic Press, San Diego, Calif.). […] C. 1976. Enzymes, 3rd Ed., Academic Press, San Diego, Calif.).

[3] = Stability in buffered aqueous solution; assay type: physicochemical; details: buffered at pH=7.0
[4] = system: ZR-75-1 cells; assay: Intracellular accumulation of DESC and MESC and polyamine contents (HPLC); assay type: cell-based, human
Protocol: Polyamine Analysis--ZR-75-1 cells were plated in 100 mm culture dishes at 5×10^5 cells/dish in MEZR medium and grown for 5 days with medium changes every other day. Fresh MEZR medium containing the indicated concentration of transport antagonist was then added, plus or minus 200 μM cycloheximide (CHX), and cells were incubated for 1 or 6 hours. […] Cell pellets were resuspended in 300 μl of 10% (v/v) trichloroacetic acid or Tris-DTT buffer (50 mM Tris/HCl, 0.1 mM EDTA, 5 mM DTT, pH 7.5) and stored at -20° C. until further analysis. For chromatographic analysis, samples were first quickly thawed and incubated for 15 minutes at 37° C. Trichloroacetic acid was then added to DTT-containing samples to a final concentration of 10% (wt/v). Samples were dispersed for 2 minutes in a sonicating water bath, and pelleted in a microcentrifuge for 5 minutes. The trichloroacetic acid-insoluble pellet was solubilized in 300-500 μl of 1 N NaOH and used to determine protein content using bovine serum albumin (fraction V) as standard.
Since DESC was eluted as a late, broad peak in the HPLC system used, DTT was added to cell extracts to reduce DESC to MESC and decrease the detection threshold. ZR-75-1 cells were incubated for 1 or 6 hours in MEZR medium in the presence of 50 or 200 μM DESC or MESC prior to determination of polyamine contents. CHX was added at 200 μM where indicated. Other details are provided under "Materials and Methods". Values are the mean±SD of triplicate determinations from 2 independent experiments.

[5] = system: ZR-75-1 cells; assay: Time course of intracellular [3H]spermidine accumulation with transport antagonists; assay type: cell-based; details: Homo sapiens
Protocol: The time course of intracellular accumulation of spermidine in the presence of transport antagonists was determined by incubating ZR-75-1 cells in 24-well plates with DESC (50 or 200 μM) or MESC (200 μM) in dissolved in MEZR medium containing 5 μM [^3 H]spermidine in the presence or absence of cycloheximide (CHX, 200 μM), and harvesting at the indicated times for the determination of intracellular radioactive contents, as described above for polyamine uptake assays.

[6] = system: ZR-75-1 cells; assay: Reversal of DFMO-induced growth inhibition by exogenous spermidine; assay type: cell-based, human
Protocol: Effect of Inhibitors on Cell Proliferation--For growth studies, ZR-75-1 cells were cultured in MEZR medium or in phenol red-free RPMI 1640 supplemented with 2 mM L-glutamine, 1 mM sodium pyruvate, 15 mM Hepes, antibiotics, 1 nM 17β-estradiol, 0.5 μg of bovine insulin per ml and 5% (v/v) charcoal-treated fetal bovine serum (SD medium), as indicated in the text. When polyamines or polyamine analogs were added to serum-containing media, 1 mM aminoguanidine was added to inhibit bovine serum amine oxidase (BSAO) activity (Morgan, D. M. L. 1989. in The Physiology of Polyamines (Bachrach, U., and Helmer, Y. M. eds) Vol. I, pp. 203-229, CRC Press, Boca Raton). The effect of the transport inhibitors on cell growth was measured by incubating ZR-75-1 cells for 11 days in medium supplemental with antagonist, polyamines and/or 1 mM DFMO as indicated, followed by colorimetric determination of DNA content with 3,5-diaminobenzaic acid (Simard, J., Dauvois, S., Haagensen, D. E., Levesque, C., Merand, Y. and Labrie, F. 1990. Endocrinology 126: 3223-3231). Medium was changed every other day in these experiments because of the slow reaction of the compound with an unknown component present in the IMEM and RPMI 1640 medium formulation.

[7] = system: polyamine transporter; assay: Spermine uptake ([14C]spermine) in ZR-75-1 cells; assay type: cell-based, human
Protocol: as §1

[8] = DESC stability in biological media (HPLC, cell-free); assay type: physicochemical; details: imem medium, 37° C., 5% CO2, cell-free, read-out: Fraction of compound decomposed
Protocol: DESC stability--DESC stability was tested by incubating the compound dissolved (at 50 μM) in PBS or in IMEM medium containing 10% (v/v) fetal bovine serum plus or minus 1 mM aminoguanidine in a humid 5% CO2 atmosphere at 37° C. and in the absence of cells. At indicated times, trichloroacetic acid was added to aliquots of this solution to a final concentration 10% (w/v) and the samples directly analyzed by HPLC as above.

[9] = secondary amino group of the spermine head; cited from earlier work
[10] = system: polyamine transporter; assay: Spermidine uptake ([3H]spermidine) in CHO-K1 cells; assay type: cell-based, Chinese hamster; details: MESC thioether derivatives, FIG. 5
[11] = system: polyamine transporter; details: ZR-75-1 cells; compound as its own substrate; read-out: Km, putrescine transport; cited from earlier work
[12] = system: ZR-75-1 cells; details: background; cited from earlier work
[13] = system: polyamine transporter; details: ZR-75-1 cells; compound as its own substrate; read-out: Km, spermidine transport; cited from earlier work
[14] = 200 μM compound + 200 μM CHX, 1 h
[15] = 200 μM compound + 200 μM CHX, 6 h

Stability in aqueous solution [3]: stable for months
Compound: NCCCNCCCC(NCCCN)C(=O)NCCSSCCN (stereo not drawn) [DEASC, N-[2,2'-Dithio(Ethyl, 1'-Aminoethyl)]spermine-5-carboxamide]
Influence of 1 mM aminoguanidine on the growth effect of the compound [1]: completely prevented by the amine oxidase inhibitor
inhibition at 50 µM ([1]; Homo sapiens, ZR-75-1, 264 h, 50 μM, 11 days): 20%
Mode of inhibition of [3H]putrescine uptake [2]: mixed competitive/non-competitive

DESC intracellular content ([4]; 50 μM compound, 1 h): < 0.01 nmol/mg protein
MESC intracellular content ([4]; 50 μM compound, 1 h): < 0.01 nmol/mg protein
DESC intracellular content ([4]; 50 μM compound, 6 h): < 0.01 nmol/mg protein
MESC intracellular content ([4]; 50 μM compound, 6 h): < 0.01 nmol/mg protein
Effect of CHX on internalization of the compound ([4]; 200 μM DESC + 200 μM CHX): did not enhance DESC internalization
DESC intracellular content [4, 14]: < 0.01 nmol/mg protein
MESC intracellular content [4, 14]: < 0.01 nmol/mg protein
MESC intracellular content [4, 15]: < 0.01 nmol/mg protein
DESC intracellular content ([4]; 200 μM compound, 1 h): < 0.01 nmol/mg protein
MESC intracellular content ([4]; 200 μM compound, 1 h): < 0.01 nmol/mg protein
DESC intracellular content ([4]; 200 μM compound, 6 h): 0.12 ± 0.01 nmol/mg protein
MESC intracellular content ([4]; 200 μM compound, 6 h): < 0.01 nmol/mg protein
Intracellular level relative to accumulation of substrates (spermidine, sym-norspermidine, spermine) under identical conditions ([4]; 200 μM, 6 h): about 1.5%
Stability in aqueous solution [3]: stable for months
degraded at 48 h, 50 µM [8]: 40%
Compound: NCCCNCCCC(NCCCN)C(=O)NCCSSCCNC(=O)C(CCCNCCCN)NCCCN (stereo not drawn) [DESC, 2,2'-dithiobis(N-ethyl-spermine-5-carboxamide)]
Spermidine intracellular content ([4]; 50 μM compound, 1 h): 0.81 ± 0.14 nmol/mg protein
Spermidine intracellular content ([4]; 50 μM compound, 6 h): 0.73 ± 0.11 nmol/mg protein
Spermine intracellular content ([4]; 50 μM compound, 6 h): 8.60 ± 0.29 nmol/mg protein
Spermidine intracellular content [4, 14]: 0.76 ± 0.04 nmol/mg protein
Spermidine intracellular content [4, 15]: 0.70 ± 0.03 nmol/mg protein
Spermidine intracellular content ([4]; 200 μM compound, 1 h): 0.79 ± 0.11 nmol/mg protein
Spermidine intracellular content ([4]; 200 μM compound, 6 h): 0.76 ± 0.11 nmol/mg protein
inhibition at 200 µM ([5]; 5 μM [3H]spermidine, 6 hours, no CHX, read-out: Decrease of net spermidine accumulation): 50%
activity at 200 µM ([5]; read-out: Cellular level of newly internalized spermidine relative to control conditions): 20%
Prevention of the reversal of DFMO-induced growth inhibition by spermidine ([6]; 50 μM, DESC:spermidine ratio up to 500): unable to prevent the reversal
Increase in affinity for the polyamine transporter on dimerization of MESC into DESC ([7]; DESC relative to MESC): up to 20 fold
Ki against [14C]spermine transport, fold lower than that of DEASC ([7]; ZR-75-1 cells, FIG. 2): about 5 fold
Ki against [14C]spermine transport, fold lower than that of MESC ([7]; ZR-75-1 cells, FIG. 2): ~16 fold

Compound: NCCC[C@](N)(C(=O)O)C(F)F [DFMO, α-difluoromethylornithine]
inhibition at 1000 µM ([6]; Homo sapiens, ZR-75-1, 264 h, 1 mM, 11-day incubation): ~50%

DESC intracellular content ([4]; 50 μM compound, 1 h): < 0.01 nmol/mg protein
MESC intracellular content ([4]; 50 μM compound, 1 h): < 0.01 nmol/mg protein
DESC intracellular content ([4]; 50 μM compound, 6 h): < 0.01 nmol/mg protein
MESC intracellular content ([4]; 50 μM compound, 6 h): < 0.01 nmol/mg protein
DESC intracellular content ([4]; 200 μM compound, 1 h): < 0.01 nmol/mg protein
MESC intracellular content ([4]; 200 μM compound, 1 h): 0.020 nmol/mg protein
DESC intracellular content ([4]; 200 μM compound, 6 h): < 0.01 nmol/mg protein
MESC intracellular content ([4]; 200 μM compound, 6 h): 0.13 nmol/mg protein
Compound: NCCCNCCCC(NCCCN)C(=O)NCCS (stereo not drawn) [MESC, N-(2-mercaptoethyl)spermine-5-carboxamide]
Spermidine intracellular content ([4]; 50 μM compound, 1 h): 0.95 ± 0.11 nmol/mg protein
Spermidine intracellular content ([4]; 50 μM compound, 6 h): 0.75 ± 0.11 nmol/mg protein
Spermidine intracellular content ([4]; 200 μM compound, 1 h): 1.15 ± 0.07 nmol/mg protein
Spermidine intracellular content ([4]; 200 μM compound, 6 h): 0.81 ± 0.15 nmol/mg protein
Influence of 1 mM aminoguanidine on the growth effect of the compound [1]: not blocked by aminoguanidine
inhibition at 200 µM ([1]; Homo sapiens, ZR-75-1, 264 h, 200 μM, 11 days, read-out: Decrease in cell growth): 35%
pKa [9]: ≈ 5.5

Compound: [N-]=[N+]=Nc1ccc(C(=O)NCCCCNC(=O)CSCCNC(=O)C(CCCNCCCN)NCCCN)c(O)c1 (stereo not drawn) [MESC-ASIB]
Ki toward spermidine uptake compared with MESC [10]: did not signicantly (P>0.10) increase the Ki

Compound: NCCCNCCCC(NCCCN)C(=O)NCCSCC(=O)NCCN1C(=O)c2cc(S(=O)(=O)O)cc3c(N)c(S(=O)(=O)O)cc(c23)C1=O (stereo not drawn) [MESC-LY]
Ki toward spermidine uptake compared with MESC [10]: did not signicantly (P>0.10) increase the Ki

Compound: NCCCNCCCC(NCCCN)C(=O)NCCSCC(N)=O (stereo not drawn) [MESC-acetamide]
Ki toward spermidine uptake compared with MESC [10]: did not signicantly (P>0.10) increase the Ki

Compound: NCCCCN [Putrescine, 1,4-butane-diamine]
Km [11]: 3.7 ± 0.4 µM

Compound: NCCCCNCCCN [Spermidine, N-[3-aminopropyl]-1,4-diaminobutane]
Concentration completely reversing DFMO-induced growth inhibition [12]: 300 nM
Concentration completely reversing growth inhibition by 1 mM DFMO ([6]; 11 days): 0.3 µM
Inhibition of cell proliferation ([6]; concentrations superior to 0.3 μM, 11 days, FIG. 8): up to 20%
Km [13]: 0.49 ± 0.15 µM

Compound: N=C(N)NN [aminoguanidine, reference compound]
Effect on cell growth, compound alone ([1]; 1 mM, 11 days): slight inhibitory effect
